Several values for one entry are separate records, joined by “and”; a condition that tells them apart may be missing. Identical values can stand only once. Like-named read-outs stand apart in the source and are kept apart here.
Tests used:
[1] = Dissociation constant (Kd) by UV absorbance titration at 280 nm, lactose; assay type: binding; details: 1 mM DBA2+Br, 50 mM phosphate buffer pH 7.4
Description: (§1) The affinity and selectivity of DBA+ to glucose were then tested by comparing affinity with other five mono- or di-saccharides, particularly fructose, galactose, maltose, sucrose, and lactose. The UV absorption changes at 280 nm of DBA+ with the increase of sugar concentration was used for the affinity calculation. The absorbance values of 1 mM DBA+Br at 280 nm as function of sugar concentrations from 0 to 512 mM were measured in 50 mM Phosphate PBS (pH=7.4).
(§2) where sqrt refers to the square root 11 Equation (11) is used for non-linear fitting in Origin to obtain the Kd values.
(§3) The disassociation constant (Kd) of DBA2+ was calculated through non-linear curve fitting according to previous work (Stootman, et al., Analyst, 131:1145-1151 (2006)).

[2] = Dissociation constant (Kd) by UV absorbance titration at 280 nm, sucrose; assay type: binding; details: 1 mM DBA2+Br, 50 mM phosphate buffer pH 7.4
Description: as §1, §2, §3

[3] = Dissociation constant (Kd) by UV absorbance titration at 280 nm, galactose; assay type: binding; details: 1 mM DBA2+Br, 50 mM phosphate buffer pH 7.4
Description: as §1, §2, §3

[4] = Dissociation constant (Kd) by UV absorbance titration at 280 nm, glucose; assay type: binding; details: 1 mM DBA2+Br, 50 mM phosphate buffer pH 7.4
Description: 100 μL of glucose aqueous solutions with two-fold serial dilutions from 1024 mM to 0.5 mM were added into a 96 well microplate. Then 100 μL of 2 mM DBA2+Br in 100 mM phosphate buffer (pH=7.4) was added. After shaking for 10 s and waiting for 30 min, the absorbance of each well at 280 nm was recorded on a microplate reader.
as §1
The titration data was plotted. The disassociation equation for complex DBAG is as follows: […]
where DBAG refers to all three possible complexes, DBA2+G, DBA1+G and DBA-G, and DBA2 refers to all the unbound molecules, DBA2+, DBA1+ and DBA0.
as §2, §3

[5] = Dissociation constant (Kd) by UV absorbance titration at 280 nm, maltose; assay type: binding; details: 1 mM DBA2+Br, 50 mM phosphate buffer pH 7.4
Description: as §1, §2, §3

[6] = pKa measurement by absorbance at 280 nm as a function of pH; assay type: physicochemical; details: for pKa: aqueous buffer solutions in 96-well microplate, 1 mM DBA2+Br, absorbance at 280 nm vs pH
Description: 100 mM buffer solutions for titration from pH 4 to pH 11.5 were prepared with different buffer systems to ensure the accuracy of pH for the following tests. NaAc/HAc was prepared for pH 4.05, 4.53, 5.03 and 5.53; Na2HPO4/NaH2PO4 was prepared for pH 6.00, 6.51, 6.99 and 7.51; NaB(OH)4/B(OH)3 was prepared for pH 8.05, 8.56 9.03 and 9.53; Na2CO3/NaHCO3 was prepared for pH 10.01, 10.54, 11.01 and 11.49.
50 μL of buffer solutions at different pH was added into 96 microplate wells. Then 50 μL of 2 mM DBA2+Br or a mixture of 2 mM DBA2+Br and 400 mM glucose in water was added to each well.
After shaking for 10 s and waiting for 10 min, the absorbance of each well at 280 nm was recorded on a microplate reader.
Due to the interaction between borate and glucose, the pH of the borate buffer solution is changed and thus the data for DBA2+Br/Glucose from pH 8 to 9.5 were abandoned. The rest of the data was plotted in Origin. The equilibrium equation for DBA2+ is as follows: […]
Then equation (4) is used for non-linear fitting in Origin, and pKa is defined as the pH at which half of the boronic acid is in the anionic state:
The same non-linear curve fitting also was used for the determination of pKa of DBAG2+G which has equilibrium equation as follow: […]
The pKa of DBA2+ before and after glucose binding was determined based on the differences in absorption spectra upon formation of tetrahedral borate anion in high pH media (Springsteen, et al., Tetrahedron, 58:5291-5300 (2002)).
pKa values were determined by curve fitting the changes in absorbance as a function of pH (FIG. 1).

[7] = Dissociation constant (Kd) by UV absorbance titration at 280 nm, fructose; assay type: binding; details: 1 mM DBA2+Br, 50 mM phosphate buffer pH 7.4
Description: as §1, §2, §3

[8] = maximum physiological or therapeutic plasma concentration, cited from earlier work
[9] = Effect of interference sugars on DBA2+ based conductimetric sensor (solution resistance); details: interference sugar 1 mM (maltose 10 mM), relative to resistance with glucose alone
Description: To a reservoir in a device set up as depicted shown in FIG. 3, 1 mL of the initial testing solution (2 mM DBA2+P and 2.5 mM Na3PO4, pH=7.6) was added. Direct current voltage is 0 mV due to the same material for two electrodes. Alternating current voltage was set at 20 mV, and the impedance was scanned vs. frequency from 10 Hz to 10 MHz (FIGS. 4A-4C). At 0.1 MHz, the capacitive reactance is very small compared to the resistance (R) of the solution, and thus this frequency was used for the following tests.
To the testing solution, trace quantities (2-5 μL) of a concentrated (0.5 or 2 M) glucose aqueous solution were continuously added. Glucose solutions were added every 30 minutes with concentrations spanning the diabetes-relevant range, (i.e. [glucose]=0-30 mM). The resistance of solution vs. time was collected for 30 min after each addition. After adding glucose to 30 mM, the testing solution was diluted to 12 mM by adding 1.5 mL of fresh testing solution. 1.5 mL was then discharged after mixing and the resistance of the remaining 1 mL solution was monitored.
Interference effects from other sugars, i.e. fructose, galactose, maltose, and lactose, were examined. Tests were performed at two different glucose concentrations typically experienced in diabetes, 5 mM (i.e. a physiological concentration of glucose) and 20 mM (i.e. a pathophysiological concentration of glucose) in 1 mL of testing solution. In these tests, interferent concentrations were higher or equal to 2.5 times the maximum plasma concentration (MPC). To the testing solution containing glucose, 2 μL or 5 μL of one of the interference solutions (containing fructose, galactose, maltose, or lactose) were added and the solution resistance (R) was monitored. The interference by 1 mM fructose or galactose was tested due to the considerable high affinity compared to the other […].

[10] = presence of 200 mM glucose (DBA-G), read-out: pKa in the presence of glucose
[11] = testing solution with 5 mM glucose
[12] = testing solution with 20 mM glucose

SMILES: C[N+](C)(Cc1ccc(C[N+](C)(C)Cc2ccccc2B(O)O)cc1)Cc1ccccc1B(O)O [DBA2+]
- Kd value for lactose [1]: could not be determined due to their low affinity
- Kd value for sucrose [2]: could not be determined due to their low affinity
- Kd [3]: 16000 µM
- Kd ([3]; listed as Formula III): ~16000 µM
- Kd [4]: 900 ± 100 µM
- Kd value for maltose [5]: could not be determined due to their low affinity
- pKa1 ([6]; absence of glucose): 9.0
- pKa2 ([6]; absence of glucose): 9.7
- pKa ([6]; absence of glucose, read-out: pKa): 9.4
- pKa [6, 10]: 6.3
- pKa1 ([6]; presence of 200 mM glucose): 5.9
- pKa2 ([6]; presence of 200 mM glucose): 6.9
- change in pKa for DBA2+ and DBA-G ([6]; upon glucose binding, centers around pH 7.4): ~3 unit
- Kd [7]: 1700 µM
- Kd ([7]; listed as Formula III): ~1700 µM

SMILES: C[N+]1(C)Cc2ccc(cc2)C[N+](C)(C)Cc2ccccc2[B-]2(O)OC3OC4CO[B-](O)(OC4C(O)C3O2)c2ccccc2C1 (centres unmarked) [DBA-G]
- pKa [6, 10]: 6.3

SMILES: O=C(CO)[C@@H](O)[C@H](O)[C@H](O)CO [Fructose, fructose]
- Max plasma [sugar] [8]: 0.133 mM
- Max plasma [sugar] ([8]; listed as fructose): 0.13 mM
- Resistance increase [9, 11]: 3% and 2.9%
- Resistance increase [9, 12]: −0.3%

SMILES: O=C[C@H](O)[C@@H](O)[C@@H](O)[C@H](O)CO [Galactose, galactose]
- Max plasma [sugar] [8]: 0.28 mM
- Resistance increase [9, 11]: 1.4%
- Resistance increase [9, 12]: 0.6%

SMILES: OC[C@H]1O[C@@H](O[C@H]2[C@H](O)[C@@H](O)C(O)O[C@@H]2CO)[C@H](O)[C@@H](O)[C@H]1O (some centres unmarked) [Lactose, lactose]
- Max plasma [sugar] [8]: 0.015 mM
- Resistance increase [9, 11]: 0.2%
- Resistance increase [9, 12]: 1.6%

SMILES: OC[C@H]1O[C@H](O[C@H]2[C@H](O)[C@@H](O)[C@H](O)O[C@@H]2CO)[C@H](O)[C@@H](O)[C@@H]1O [Maltose, maltose]
- Max plasma [sugar] [8]: 3.5 mM
- Resistance increase [9, 11]: 0.4%
- Resistance increase [9, 12]: 1.6%

From patent US20220204531A1, “DIBORONIC ACID COMPOUNDS AND METHODS OF MAKING AND USING THEREOF” (The Regents of The University of California, priority 2020, published 2022)
